How the values were obtained:
Format in all cases: cell-based
Erk signaling pathway = assay: Lysosome inward movement in the presence of the MAPK inhibitor U0126, and Erk western blot; settings: A172 cells, results not shown
Experimental: Turning to FIG. 8, deptropine and pizotifen are shown to act through the Erk signaling pathway. In this experiment, A172 cells were treated with deptropine and pizotifen at 5 μM concentrations for 4 hours in the presence of the MAPK inhibitor U0126. I.F. microscopy was then performed. This helped allow the determination of the mechanism of action of deptropine and pizotifen.

A172 cells = assay: Standard MTS assay (proliferation); settings: concentrations up to 10 micromolar
Experimental: A very beneficial aspect of the treatment with deptropine and pizotifen is shown in FIG. 11, namely that the actions of deptropine and pizotifen are not the result of toxicity. The standard MTS assay was performed for A172 cells in the presence of the indicate concentrations of deptropine and pizotifen.

LC3-II = assay: Autophagy: LC3-I/LC3-II western blot and GFP-LC3II microscopy; settings: A172 cells, overnight; for levels of LC3-II, western blot: deptropine 5 or 10 micromolar, pizotifen 5 micromolar; for association of GFP-LC3-II with puncta representing autophagosomes: microscopy
Experimental: A further embodiment of this technology is the use of deptropine and pizotifen to induce autophagy. A172 cells were treated with EIPA (1), Serum (2), Serum Free (3), DMSO (4, solvent control), rapamycin 0.5 micromolar (5), one micromolar (6), deptropine at 5 micromolar (7), 10 micromolar (8) or pizotifen at 5 micromolar (9) overnight and GFP-LC3II was visualized by microscopy or western blot analysis was performed to detect LC3-I and LC3-II forms.

A172 glioblastoma cells [1] = assay: Growth factor (HGF, EGF) induced trafficking of lysosomes to cell periphery; settings: 10 μM overnight, HGF (33 ng/ml) or EGF (100 ng/ml)
Experimental: In this embodiment deptropine and pizotifen also block lysosome peripheral movement in glioma cells treated with the growth factors HGF and EGF. Both of these growth factors interact with their receptors, c-Met and EGFR, respectively to induce glioma invasion. In this example, A172 glioblastoma cells were treated overnight with 10 μM deptropine or pizotifen in the presence or absence of HGF (33 ng/ml) or EGF (100 ng/ml). At the end of the incubation time, cells were fixed and stained for LAMP-1, filamentous actin, and nuclei. Representative merged IF images depicting the effect of DMSO, 10 μM deptropine or pizotifen and/or HGF, EGF on the distribution of lysosomes (red in color images) in A172 glioblastoma cells. Also shown here are actin (green in color images) and nuclei (blue in color images).

A172 glioblastoma cells [2] = assay: Wound invasion through matrigel, Incucyte; settings: for invasion: 5 or 10 μM, 8 h prior to wounding and addition of matrigel
Experimental: An important aspect of this technology is the showing that deptropine and pizotifen block tumor invasion using 3D assays. […] For this experiment A172 glioblastoma cells were treated with 5 or 10 μM deptropine or pizotifen or drug mix at 5 μM concentration for 8 h prior to the wounding and the addition of matrigel. Upon wounding, cells were allowed to migrate or invade through matrigel in the presence of DMSO, 5 or 10 μM deptropine or pizotifen or the drug mix at 5 μM concentration. EIPA, a known inhibitor of lysosomal outward movement, is the positive control. Motility and invasion were calculated by Incucyte platform that acquires real time images of invasion and motility and calculate the relative wound density percentage at different time points. Percent migration (FIG. 6A) or invasion (FIG. 6B) through matrigel in A172 glioblastoma cells in the presence of DMSO, 5 or 10 μM deptropine or pizotifen or the drug mix at 5 μM concentration. Error bars represent s.e.m. of 5 separate experiments. # statistical significance, p<0.001, versus both 1% FBS and DMSO; *, p<0.01 versus both 1% FBS and DMSO

mTOR signaling pathway = assay: Western blot of phosphorylated S6K (mTOR signaling); settings: A172 cells, 4 hours
Experimental: Deptropine and pizotifen were added to A172 cells for 4 hours and western blot analysis was performed to measure levels of phosphorylated S6K, indicative of active mTOR signaling.

Row | Compound | Erk signaling pathway, western blot (Erk signaling pathway) | proliferation (MTS) (A172 cells) | levels of LC3-II, western blot (LC3-II) | association of GFP-LC3-II with puncta representing autophagosomes (LC3-II) | trafficking of lysosomes to cell periphery induced by growth factors (A172 glioblastoma cells [1]) | invasion through matrigel (percent invasion) (A172 glioblastoma cells [2]; 10 μM) | invasion (A172 glioblastoma cells [2]) | phosphorylation of S6K (mTOR signaling pathway)
1 | CN1CCC(=C2c3ccccc3CCc3sccc32)CC1 [pizotifen, 4-(1-methyl-4-piperidylidine)-9,10-dihydro-4H-benzo-[4,5]cyclohepta[1,2]-thiophene] | activate the Erk signaling pathway | do not inhibit proliferation | increases the levels of the proteins LC3-II | increase the association GFP-LC3-II with puncta | block trafficking of lysosomes to cell periphery | significantly reduces invasion | decrease | eliminates the phosphorylation of S6K
2 | CN1[C@@H]2CC[C@H]1C[C@@H](OC1c3ccccc3CCc3ccccc31)C2 [deptropine, 3a-[(10, 11-dihydro-5H-dibenzo[a,d]cyclohepten-5-yl)oxy]1aH,5aH-tropane] | activate the Erk signaling pathway | do not inhibit proliferation | increases the levels of the proteins LC3-II | increase the association GFP-LC3-II with puncta | block trafficking of lysosomes to cell periphery |  | decrease | eliminates the phosphorylation of S6K
